Holding throughout (format): cell-based
Experiment [1] addresses proteins of HEK293T cells transiently overexpressing caspase-6 (Homo sapiens, UniProt P37802). Particulars: exp_ref Probe; protein TAGLN2 (P37802); analysis C6.
Experiment [2] deals with proteins of HEK293T cells transiently overexpressing caspase-6 (Homo sapiens, UniProt P50991). Particulars: exp_ref Probe; protein CCT4 (P50991); analysis C6.
In experiment [3] the target is proteins of HEK293T cells transiently overexpressing caspase-6 (Homo sapiens, UniProt Q9UQE7). Particulars: protein SMC3 (Q9UQE7), analysis C6.
Experiment [4] deals with proteins of HEK293T cells transiently overexpressing caspase-6 (Homo sapiens, UniProt Q9Y6C9). The conditions noted are these: protein MTCH2 (Q9Y6C9); exp_ref Probe; analysis C6.
Experiment [5] concerns the target proteins of HEK293T cells transiently overexpressing caspase-6 (Homo sapiens, UniProt P49321). Particulars: exp_ref Probe; protein NASP (P49321); analysis C6.
Experiment [6] addresses proteins of HEK293T cells transiently overexpressing caspase-6 (Homo sapiens, UniProt Q7KZF4). Particulars: exp_ref Probe; protein SND1 (Q7KZF4); analysis C6.
Experiment [7] deals with proteins of HEK293T cells transiently overexpressing caspase-6 (Homo sapiens, UniProt P43243). The conditions noted are these: exp_ref Probe; protein MATR3 (P43243); analysis C6.
Experiment [8] addresses proteins of HEK293T cells transiently overexpressing caspase-6 (Homo sapiens, UniProt Q96AE4). Particulars: Probe; protein FUBP1 Q96AE4.
The target of experiment [9] is proteins of HEK293T cells transiently overexpressing caspase-6 (Homo sapiens, UniProt P62701). Particulars: exp_ref Probe; protein RPS4X (P62701); analysis C6.
Experiment [10] deals with proteins of HEK293T cells transiently overexpressing caspase-6 (Homo sapiens, UniProt P09874). The conditions noted are these: protein PARP1 (P09874).
The target of experiment [11] is proteins of HEK293T cells transiently overexpressing caspase-6 (Homo sapiens, UniProt P62937). Particulars: exp_ref Probe; protein PPIA (P62937); analysis C6.
In experiment [12] the target is proteins of HEK293T cells transiently overexpressing caspase-6 (Homo sapiens, UniProt P27348). The conditions noted are these: exp_ref Probe; protein YWHAQ (P27348); analysis C6.
Experiment [13] concerns the target proteins of HEK293T cells transiently overexpressing caspase-6 (Homo sapiens, UniProt Q9Y230). The conditions noted are these: protein RUVBL2 (Q9Y230); exp_ref Probe; analysis C6.
Experiment [14] concerns the target proteins of HEK293T cells transiently overexpressing caspase-6 (Homo sapiens, UniProt P08195). The conditions noted are these: protein SLC3A2 (P08195); exp_ref Probe; analysis C6.
Experiment [15] deals with T1, proteins of HEK293T cells transiently overexpressing caspase-6 (Homo sapiens, UniProt O00567).
T1 sequence (O00567 1-594): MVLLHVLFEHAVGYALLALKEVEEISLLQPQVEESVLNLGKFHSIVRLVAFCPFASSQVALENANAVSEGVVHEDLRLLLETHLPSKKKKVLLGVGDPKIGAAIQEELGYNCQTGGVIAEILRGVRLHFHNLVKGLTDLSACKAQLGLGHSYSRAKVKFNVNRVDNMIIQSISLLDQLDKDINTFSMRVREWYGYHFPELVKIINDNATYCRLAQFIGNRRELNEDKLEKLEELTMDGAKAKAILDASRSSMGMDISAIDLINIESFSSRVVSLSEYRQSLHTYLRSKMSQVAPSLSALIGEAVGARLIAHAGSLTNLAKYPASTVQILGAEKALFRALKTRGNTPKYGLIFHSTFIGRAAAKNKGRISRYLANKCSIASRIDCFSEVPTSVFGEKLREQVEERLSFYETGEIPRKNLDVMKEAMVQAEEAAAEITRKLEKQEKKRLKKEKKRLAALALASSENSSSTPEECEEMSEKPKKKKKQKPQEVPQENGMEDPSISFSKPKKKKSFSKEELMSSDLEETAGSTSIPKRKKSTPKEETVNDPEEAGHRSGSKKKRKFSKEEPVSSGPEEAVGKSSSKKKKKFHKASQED
The conditions noted are these: exp_ref Probe; protein NOP56 (O00567); analysis C6.

The target of experiment [16] is proteins of HEK293T cells transiently overexpressing caspase-6 (Homo sapiens, UniProt P00338). Particulars: Probe; protein LDHA P00338.
For experiment [17], the target named is proteins of HEK293T cells transiently overexpressing caspase-6 (Homo sapiens, UniProt P0DMV8). Particulars: protein HSPA1A (P0DMV8).
In experiment [18] the target is proteins of HEK293T cells transiently overexpressing caspase-6 (Homo sapiens, UniProt P46060). The conditions noted are these: exp_ref Probe; protein RANGAP1 (P46060); analysis C6.

Sequence of proteins of HEK293T cells transiently overexpressing caspase-6 (Homo sapiens, UniProt P09874) (P09874 whole entry): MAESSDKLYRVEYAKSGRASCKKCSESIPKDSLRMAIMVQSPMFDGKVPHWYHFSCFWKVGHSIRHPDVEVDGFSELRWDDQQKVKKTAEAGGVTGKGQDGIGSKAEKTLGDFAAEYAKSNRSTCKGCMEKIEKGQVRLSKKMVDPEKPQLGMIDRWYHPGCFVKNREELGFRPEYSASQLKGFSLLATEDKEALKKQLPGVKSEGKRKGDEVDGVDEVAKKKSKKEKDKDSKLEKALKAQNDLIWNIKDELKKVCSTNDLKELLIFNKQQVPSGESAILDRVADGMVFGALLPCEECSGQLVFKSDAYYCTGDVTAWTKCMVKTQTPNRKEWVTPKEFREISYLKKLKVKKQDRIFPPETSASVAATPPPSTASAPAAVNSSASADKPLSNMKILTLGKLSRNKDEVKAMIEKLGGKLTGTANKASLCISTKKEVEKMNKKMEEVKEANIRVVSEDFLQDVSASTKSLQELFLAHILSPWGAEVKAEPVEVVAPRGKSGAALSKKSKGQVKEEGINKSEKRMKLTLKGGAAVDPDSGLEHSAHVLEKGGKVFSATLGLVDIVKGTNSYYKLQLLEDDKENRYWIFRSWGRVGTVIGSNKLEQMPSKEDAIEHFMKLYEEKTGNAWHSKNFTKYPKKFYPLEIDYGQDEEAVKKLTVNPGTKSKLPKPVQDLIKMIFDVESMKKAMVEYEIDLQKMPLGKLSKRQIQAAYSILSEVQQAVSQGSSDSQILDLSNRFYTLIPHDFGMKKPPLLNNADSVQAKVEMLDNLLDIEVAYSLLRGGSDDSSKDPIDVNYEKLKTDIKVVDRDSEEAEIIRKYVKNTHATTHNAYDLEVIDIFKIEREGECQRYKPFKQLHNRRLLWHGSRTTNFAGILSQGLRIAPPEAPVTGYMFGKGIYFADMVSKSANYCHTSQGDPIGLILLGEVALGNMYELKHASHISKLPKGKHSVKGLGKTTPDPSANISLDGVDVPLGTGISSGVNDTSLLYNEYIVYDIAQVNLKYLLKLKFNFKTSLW
Sequence of proteins of HEK293T cells transiently overexpressing caspase-6 (Homo sapiens, UniProt P0DMV8) (P0DMV8 whole entry): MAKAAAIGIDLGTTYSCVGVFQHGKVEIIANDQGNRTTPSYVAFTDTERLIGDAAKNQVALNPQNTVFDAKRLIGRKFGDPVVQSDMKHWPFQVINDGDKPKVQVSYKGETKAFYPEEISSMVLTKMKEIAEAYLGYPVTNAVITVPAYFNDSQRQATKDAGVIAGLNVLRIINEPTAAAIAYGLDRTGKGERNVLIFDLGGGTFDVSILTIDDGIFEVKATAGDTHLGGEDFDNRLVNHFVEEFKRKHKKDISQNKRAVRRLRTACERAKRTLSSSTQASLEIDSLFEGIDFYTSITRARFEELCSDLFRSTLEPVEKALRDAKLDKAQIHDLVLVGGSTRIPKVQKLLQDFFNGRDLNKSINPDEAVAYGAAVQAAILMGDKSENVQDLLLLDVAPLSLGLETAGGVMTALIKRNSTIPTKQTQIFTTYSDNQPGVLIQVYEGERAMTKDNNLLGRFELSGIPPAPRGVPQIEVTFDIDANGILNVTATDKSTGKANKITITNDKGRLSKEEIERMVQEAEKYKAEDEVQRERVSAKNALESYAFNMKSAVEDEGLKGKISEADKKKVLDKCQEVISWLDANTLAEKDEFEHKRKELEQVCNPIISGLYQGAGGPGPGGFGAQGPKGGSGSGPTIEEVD
Sequence of proteins of HEK293T cells transiently overexpressing caspase-6 (Homo sapiens, UniProt Q9UQE7) (Q9UQE7 whole entry): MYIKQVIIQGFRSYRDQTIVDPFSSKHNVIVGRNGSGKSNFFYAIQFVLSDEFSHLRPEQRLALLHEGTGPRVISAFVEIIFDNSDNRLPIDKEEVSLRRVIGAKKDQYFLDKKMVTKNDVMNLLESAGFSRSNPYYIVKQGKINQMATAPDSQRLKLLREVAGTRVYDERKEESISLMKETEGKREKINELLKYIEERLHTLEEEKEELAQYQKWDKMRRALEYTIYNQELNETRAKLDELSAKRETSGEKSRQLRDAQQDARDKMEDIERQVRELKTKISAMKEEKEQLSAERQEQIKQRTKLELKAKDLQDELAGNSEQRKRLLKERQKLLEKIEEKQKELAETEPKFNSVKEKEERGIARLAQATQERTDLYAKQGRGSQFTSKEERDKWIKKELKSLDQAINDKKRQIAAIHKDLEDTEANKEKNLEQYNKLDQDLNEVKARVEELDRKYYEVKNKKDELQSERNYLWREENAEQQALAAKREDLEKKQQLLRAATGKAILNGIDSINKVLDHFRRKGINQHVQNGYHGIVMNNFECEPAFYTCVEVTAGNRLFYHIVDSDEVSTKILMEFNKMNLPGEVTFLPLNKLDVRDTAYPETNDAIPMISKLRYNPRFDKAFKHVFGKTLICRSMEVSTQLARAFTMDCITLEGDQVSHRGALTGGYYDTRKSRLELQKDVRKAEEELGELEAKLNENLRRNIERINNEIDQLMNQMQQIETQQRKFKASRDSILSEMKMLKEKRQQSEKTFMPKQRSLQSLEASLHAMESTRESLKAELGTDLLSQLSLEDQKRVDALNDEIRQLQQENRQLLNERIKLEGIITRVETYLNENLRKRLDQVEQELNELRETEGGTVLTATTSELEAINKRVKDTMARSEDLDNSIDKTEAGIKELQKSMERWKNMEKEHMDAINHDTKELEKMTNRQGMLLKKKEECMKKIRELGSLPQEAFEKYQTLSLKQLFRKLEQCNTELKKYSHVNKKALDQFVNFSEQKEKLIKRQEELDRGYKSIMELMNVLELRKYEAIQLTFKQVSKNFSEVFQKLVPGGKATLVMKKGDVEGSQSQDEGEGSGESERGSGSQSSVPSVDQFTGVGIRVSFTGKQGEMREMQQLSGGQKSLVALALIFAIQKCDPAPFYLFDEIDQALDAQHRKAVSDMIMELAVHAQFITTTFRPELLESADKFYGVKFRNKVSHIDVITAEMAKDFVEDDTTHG
Sequence of proteins of HEK293T cells transiently overexpressing caspase-6 (Homo sapiens, UniProt P08195) (P08195 102-630): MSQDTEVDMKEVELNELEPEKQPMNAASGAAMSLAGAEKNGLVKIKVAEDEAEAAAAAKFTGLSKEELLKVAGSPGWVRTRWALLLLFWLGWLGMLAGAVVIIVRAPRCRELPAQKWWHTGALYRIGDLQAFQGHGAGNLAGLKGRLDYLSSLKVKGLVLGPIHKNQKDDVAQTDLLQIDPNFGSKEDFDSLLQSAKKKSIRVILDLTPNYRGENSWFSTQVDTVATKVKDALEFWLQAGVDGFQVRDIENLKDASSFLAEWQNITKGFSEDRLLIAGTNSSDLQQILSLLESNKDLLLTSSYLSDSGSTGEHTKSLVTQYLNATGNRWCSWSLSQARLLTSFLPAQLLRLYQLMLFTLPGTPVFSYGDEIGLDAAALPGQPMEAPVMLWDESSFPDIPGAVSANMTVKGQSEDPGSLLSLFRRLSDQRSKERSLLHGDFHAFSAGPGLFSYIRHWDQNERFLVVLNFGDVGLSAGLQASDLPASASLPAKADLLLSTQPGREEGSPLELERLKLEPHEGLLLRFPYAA
Sequence of proteins of HEK293T cells transiently overexpressing caspase-6 (Homo sapiens, UniProt P62937) (P62937 whole entry): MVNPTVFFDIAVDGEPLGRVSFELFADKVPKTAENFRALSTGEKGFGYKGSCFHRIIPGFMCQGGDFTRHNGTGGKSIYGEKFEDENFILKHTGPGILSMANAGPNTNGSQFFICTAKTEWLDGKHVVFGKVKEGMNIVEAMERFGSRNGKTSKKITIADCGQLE
Sequence of proteins of HEK293T cells transiently overexpressing caspase-6 (Homo sapiens, UniProt P37802) (P37802 whole entry): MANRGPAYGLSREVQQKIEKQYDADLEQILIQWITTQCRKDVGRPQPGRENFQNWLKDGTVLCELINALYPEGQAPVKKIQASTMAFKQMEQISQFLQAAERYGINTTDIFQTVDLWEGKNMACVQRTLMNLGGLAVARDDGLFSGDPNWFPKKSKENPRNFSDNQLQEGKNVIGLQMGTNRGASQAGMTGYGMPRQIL
Sequence of proteins of HEK293T cells transiently overexpressing caspase-6 (Homo sapiens, UniProt P43243) (P43243 whole entry): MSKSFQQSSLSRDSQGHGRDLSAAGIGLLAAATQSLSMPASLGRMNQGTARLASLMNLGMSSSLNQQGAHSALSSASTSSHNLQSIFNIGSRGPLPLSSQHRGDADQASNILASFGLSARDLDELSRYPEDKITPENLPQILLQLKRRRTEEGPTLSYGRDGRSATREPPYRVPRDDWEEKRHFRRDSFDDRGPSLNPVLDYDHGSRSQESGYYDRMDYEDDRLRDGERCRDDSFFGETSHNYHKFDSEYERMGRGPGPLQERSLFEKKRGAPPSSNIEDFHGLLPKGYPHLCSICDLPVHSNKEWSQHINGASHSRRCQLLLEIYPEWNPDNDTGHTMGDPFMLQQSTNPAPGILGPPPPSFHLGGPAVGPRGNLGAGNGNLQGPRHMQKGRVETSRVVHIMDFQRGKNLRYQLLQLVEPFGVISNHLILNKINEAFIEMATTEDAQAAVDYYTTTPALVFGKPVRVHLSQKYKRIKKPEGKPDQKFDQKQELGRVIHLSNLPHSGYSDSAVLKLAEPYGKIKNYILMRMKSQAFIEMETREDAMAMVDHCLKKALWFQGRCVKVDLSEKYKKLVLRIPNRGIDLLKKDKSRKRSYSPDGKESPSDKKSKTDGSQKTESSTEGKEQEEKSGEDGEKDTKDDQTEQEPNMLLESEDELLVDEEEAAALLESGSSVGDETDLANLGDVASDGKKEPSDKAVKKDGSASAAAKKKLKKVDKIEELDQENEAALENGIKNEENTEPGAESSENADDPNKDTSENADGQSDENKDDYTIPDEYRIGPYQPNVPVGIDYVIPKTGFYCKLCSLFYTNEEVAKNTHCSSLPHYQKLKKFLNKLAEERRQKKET
Sequence of proteins of HEK293T cells transiently overexpressing caspase-6 (Homo sapiens, UniProt P27348) (P27348 whole entry): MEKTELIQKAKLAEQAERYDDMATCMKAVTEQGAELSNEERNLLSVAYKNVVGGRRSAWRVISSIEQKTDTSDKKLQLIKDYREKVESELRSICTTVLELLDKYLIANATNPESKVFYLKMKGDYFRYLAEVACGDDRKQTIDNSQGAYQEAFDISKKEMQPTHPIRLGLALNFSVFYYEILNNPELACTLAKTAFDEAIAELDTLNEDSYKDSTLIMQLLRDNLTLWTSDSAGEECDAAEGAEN

Consider `C#CCOc1ccc([C@@H]2C[C@@H](C(=O)Nc3ccc(OC(F)(F)F)cc3)CN(S(=O)(=O)C=C)C2)cc1` (relative stereo) [13-t], for which the enrich.exp.med is listed as 0.7525 in experiment [1]; 0.3881 in experiment [2]; 3.867 in [3] (exp_ref Probe); 1.32 in [4]; 0.1581 in [5]; 0.1516 in experiment [6]. For the same molecule, the enrich.exp.med in experiment [7] is 0.5323; in [8], -1.073; in experiment [9], 0.8885; in [10] (exp_ref Probe, analysis C6) it was 0.2769; in [11], -0.06908; in experiment [12], 0.7591. For the same molecule, the enrich.exp.med in [13] is on record as 1.2493; in experiment [14], 1.379; in [15] it was -0.321; in experiment [16], -0.5222; in [17] (exp_ref Probe, analysis C6) it was 0.4797; in [18] it was 0.1212. In addition, the enrich.exp.med.lin in experiment [3] (Expt Probe) came to 14.5893; in experiment [10], 1.2116; in [17] it was 1.394. The enrich.exp.med.log2 in experiment [3] (Expt Probe) was 3.867; in experiment [10], 0.2769; in [17], 0.4797.
